Measurements: ChEMBL document CHEMBL5370544, “Design, synthesis, and biological evaluation of 1-styrenyl isoquinoline derivatives for anti-hepatocellular carcinoma activity and effect on mitochondria” (Eur J Med Chem, 2023)
Active and inactive are the calls of the source. No cut-off for these calls is given here.

What was measured:
[1] = system: HCCLM9; experiment: Antiproliferative activity against human HCCLM9 cells assessed as inhibition of cell growth measured after 72 hrs by MTT assay; type: functional, cell-based; settings: HCCLM9, 72 h
[2] = system: Huh-7; experiment: Inhibition of colony formation in human Huh-7 cells assessed as reduction in number of cell colonies at 0.55 to 2.2 uM measured after 10 and 14 days by crystal violet staining based light microscopic analysis; type: functional; settings: dose 0.55-2.2 µM, time 14.0 day
[3] = system: SK-HEP1; experiment: Antiproliferative activity against human SK-HEP1 cells assessed as reduction in ratio of EdU-positive cells measured after 24 hrs by EdU incorporation assay; type: functional, cell-based; settings: dose 1.25-5 µM
[4] = system: Huh-7; experiment: Induction of cell cycle arrest in human Huh-7 cells assessed as increase in accumulation of cells at G2/M phase incubated for 24 hrs by propidium iodide staining based flow cytometry analysis; type: functional; settings: dose 0.9-8.1 µM
[5] = system: SK-HEP1; experiment: Induction of cell cycle arrest in human SK-HEP1 cells assessed as decrease in accumulation of cells at G0/G1 phase incubated for 24 hrs by propidium iodide staining based flow cytometry analysis; type: functional; settings: dose 1.5-13.5 µM
[6] = system: Huh-7; experiment: Induction of cell cycle arrest in human Huh-7 cells assessed as decrease in CDK1 expression incubated for 48 hrs by Western blotting analysis; type: functional, cell-based; settings: dose 0.9-8.1 µM
[7] = system: Huh-7; experiment: Induction of cell cycle arrest in human Huh-7 cells assessed as decrease in cyclin B1 expression incubated for 48 hrs by Western blotting analysis; type: functional, cell-based; settings: dose 0.9-8.1 µM
[8] = system: SK-HEP1; experiment: Induction of cell cycle arrest in human SK-HEP1 cells assessed as decrease in cyclin A expression incubated for 48 hrs by Western blotting analysis; type: functional, cell-based; settings: dose 1.5-13.5 µM
[9] = system: Huh-7; experiment: Inhibition of cell migration in human Huh-7 cells at 0.55 to 2.2 uM incubated for 24 hrs by crystal violet staining based transwell migration assay; type: functional; settings: dose 0.55-2.2 µM
[10] = system: SK-HEP1; experiment: Inhibition of cell migration in human SK-HEP1 cells at 1.25 to 5 uM incubated for 24 hrs by crystal violet staining based transwell migration assay; type: functional; settings: dose 1.25-5 µM
[11] = system: SK-HEP1; experiment: Antiinvasive activity in human SK-HEP1 cells assessed as reduction in number of invasive cells at 1.25 to 5 uM incubated for 24 hrs by transwell invasion assay; type: functional, cell-based; settings: dose 1.25-5 µM
[12] = system: Huh-7; experiment: Antimigratory activity against human Huh-7 cells assessed as up-regulation of E-cadherin expression at 0.55 to 2.2 uM incubated 24 hrs by Western blotting analysis; type: functional, cell-based; settings: dose 0.55-2.2 µM
[13] = system: Huh-7; experiment: Induction of apoptosis in human Huh-7 cells assessed as cell shrinkage at 0.9 to 8.1 uM incubated for 24 hrs by giemsa staining based micrscopic analysis; type: functional; settings: dose 0.9-8.1 µM
[14] = system: Huh-7; experiment: Induction of apoptosis in human Huh-7 cells assessed as cell membrane blebbing at 0.9 to 8.1 uM incubated for 24 hrs by giemsa staining based micrscopic analysis; type: functional; settings: dose 0.9-8.1 µM
[15] = system: Huh-7; experiment: Induction of apoptosis in human Huh-7 cells assessed as chromatin condensation at 0.9 to 8.1 uM incubated for 24 hrs by giemsa staining based micrscopic analysis; type: functional, cell-based; settings: dose 0.9-8.1 µM
[16] = system: SK-HEP1; experiment: Induction of apoptosis in human SK-HEP1 cells assessed as cell shrinkage at 1.5 to 13.5 uM incubated for 24 hrs by giemsa staining based micrscopic analysis; type: functional; settings: dose 1.5-13.5 µM
[17] = system: SK-HEP1; experiment: Induction of apoptosis in human SK-HEP1 cells assessed as cell membrane blebbing at 1.5 to 13.5 uM incubated for 24 hrs by giemsa staining based micrscopic analysis; type: functional; settings: dose 1.5-13.5 µM
[18] = system: SK-HEP1; experiment: Induction of apoptosis in human SK-HEP1 cells assessed as increase in proportion of early apoptosis at 1.5 to 13.5 uM incubated for 24 hrs by Annexin V-AbFluor 488/propidium iodide staining based flow cytometry analysis; type: functional, cell-based; settings: dose 1.5-13.5 µM
[19] = system: Huh-7; experiment: Induction of apoptosis in human Huh-7 cells assessed as increase in proportion of late apoptosis at 0.9 to 8.1 uM incubated for 24 hrs by Annexin V-AbFluor 488/propidium iodide staining based flow cytometry analysis; type: functional, cell-based; settings: dose 0.9-8.1 µM
[20] = system: Huh-7; experiment: Induction of mitochondrial membrane potential depolarization in human Huh-7 cells incubated for 24 hrs by TMRE staining based flow cytometry analysis; type: functional, cell-based; settings: dose 0.9-8.1 µM
[21] = system: SK-HEP1; experiment: Induction of mitochondrial membrane potential depolarization in human SK-HEP1 cells incubated for 24 hrs by TMRE staining based flow cytometry analysis; type: functional, cell-based; settings: dose 1.5-13.5 µM
[22] = system: Huh-7; experiment: Induction of ROS production in human Huh-7 cells assessed as increase in intracellular ROS level at 0.9 to 8.1 uM incubated for 24 hrs by DCFH-DA staining based fluorescence assay; type: functional, cell-based; settings: dose 0.9-8.1 µM
[23] = system: SK-HEP1; experiment: Induction of ROS production in human SK-HEP1 cells assessed as increase in intracellular ROS level at 1.5 to 13.5 uM incubated for 24 hrs by DCFH-DA staining based fluorescence assay; type: functional, cell-based; settings: dose 1.5-13.5 µM
[24] = system: Huh-7; experiment: Induction of apoptosis in human Huh-7 cells assessed as inhibition of caspase-3 expression incubated for 48 hrs by Western blotting analysis; type: functional, cell-based; settings: dose 0.9-8.1 µM
[25] = system: Huh-7; experiment: Induction of apoptosis in human Huh-7 cells assessed as increase in cleaved caspase-3 expression at 0.9 to 8.1 uM incubated for 48 hrs by Western blotting analysis; type: functional, cell-based; settings: dose 0.9-8.1 µM
[26] = system: SK-HEP1; experiment: Induction of apoptosis in human SK-HEP1 cells assessed as increase in cytochrome-C expression at 1.5 to 13.5 uM incubated for 48 hrs by Western blotting analysis; type: functional, cell-based; settings: dose 1.5-13.5 µM
[27] = system: SK-HEP1; experiment: Induction of apoptosis in human SK-HEP1 cells assessed as increase in cleaved caspase-3 expression at 1.5 to 13.5 uM incubated for 48 hrs by Western blotting analysis; type: functional, cell-based; settings: dose 1.5-13.5 µM
[28] = molecular target: Serine/threonine-protein kinase AKT (Homo sapiens) (UniProt P31751+Q9Y243+P31749); experiment: Inhibition of Akt signalling pathway in human Huh-7 cells assessed as inhibition of Akt phosphorylation at 0.9 to 8.1 uM measured after 48 hrs by Western blotting analysis; type: cell-based; settings: dose 0.9-8.1 µM
Chain of Serine/threonine-protein kinase AKT (Homo sapiens) (P31749 whole entry, looked up): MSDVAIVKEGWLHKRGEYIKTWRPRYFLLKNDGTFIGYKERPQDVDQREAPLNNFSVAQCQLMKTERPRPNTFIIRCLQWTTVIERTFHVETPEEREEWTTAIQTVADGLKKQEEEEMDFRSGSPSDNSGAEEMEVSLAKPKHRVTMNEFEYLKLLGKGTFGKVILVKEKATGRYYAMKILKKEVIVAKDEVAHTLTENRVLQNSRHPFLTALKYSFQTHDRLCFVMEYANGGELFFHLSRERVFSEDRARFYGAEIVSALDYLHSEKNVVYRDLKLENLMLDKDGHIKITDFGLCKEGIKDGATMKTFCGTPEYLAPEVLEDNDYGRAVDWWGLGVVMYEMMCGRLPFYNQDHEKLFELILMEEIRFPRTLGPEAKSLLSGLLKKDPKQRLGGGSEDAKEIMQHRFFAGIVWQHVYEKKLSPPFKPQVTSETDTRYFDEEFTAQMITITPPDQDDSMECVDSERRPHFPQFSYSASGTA
Chain of Serine/threonine-protein kinase AKT (Homo sapiens) (P31751 whole entry, looked up): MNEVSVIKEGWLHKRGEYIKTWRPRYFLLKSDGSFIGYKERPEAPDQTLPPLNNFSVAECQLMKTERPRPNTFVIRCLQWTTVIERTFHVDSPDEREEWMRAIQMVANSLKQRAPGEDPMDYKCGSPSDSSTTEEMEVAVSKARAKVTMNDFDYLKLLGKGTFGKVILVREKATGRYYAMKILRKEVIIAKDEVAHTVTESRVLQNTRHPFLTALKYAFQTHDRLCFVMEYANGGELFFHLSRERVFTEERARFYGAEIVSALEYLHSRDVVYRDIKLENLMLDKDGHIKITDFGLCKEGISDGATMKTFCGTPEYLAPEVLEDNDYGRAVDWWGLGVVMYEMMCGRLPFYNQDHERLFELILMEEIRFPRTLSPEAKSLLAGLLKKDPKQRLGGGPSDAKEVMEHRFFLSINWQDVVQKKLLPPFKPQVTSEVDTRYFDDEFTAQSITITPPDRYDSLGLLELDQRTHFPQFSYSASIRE
Chain of Serine/threonine-protein kinase AKT (Homo sapiens) (Q9Y243 whole entry, looked up): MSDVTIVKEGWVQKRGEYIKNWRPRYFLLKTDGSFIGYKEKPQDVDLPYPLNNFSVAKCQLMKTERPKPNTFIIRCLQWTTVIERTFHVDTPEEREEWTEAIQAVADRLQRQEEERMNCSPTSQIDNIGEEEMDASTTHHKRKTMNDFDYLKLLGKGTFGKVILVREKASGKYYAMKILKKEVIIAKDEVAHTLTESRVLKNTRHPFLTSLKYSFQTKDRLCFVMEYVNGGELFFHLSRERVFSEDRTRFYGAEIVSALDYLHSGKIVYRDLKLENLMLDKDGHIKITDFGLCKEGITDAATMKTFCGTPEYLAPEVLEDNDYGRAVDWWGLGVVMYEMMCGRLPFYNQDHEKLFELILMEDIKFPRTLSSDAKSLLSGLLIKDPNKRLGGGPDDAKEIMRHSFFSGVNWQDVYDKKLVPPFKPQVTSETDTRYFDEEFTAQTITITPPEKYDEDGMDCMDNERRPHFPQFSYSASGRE

[29] = system: Huh-7; experiment: Antitumor activity against human Huh-7 cells xenografted in BALB/c mouse assessed as reduction in tumor growth at 15 to 30 mg/kg, ip qd measured after 5 days; type: functional, organism-based; settings: dose 15-30 mg/kg, time 5.0 day
[30] = system: Huh-7; experiment: Antitumor activity against human Huh-7 cells xenografted in BALB/c mouse assessed as reduction in tumor weight at 15 to 30 mg/kg, ip qd; type: functional, organism-based; settings: dose 15-30 mg/kg, time 14.0 day, TDE = time-dependent effect
[31] = system: Huh-7; experiment: Antitumor activity against human Huh-7 cells xenografted in BALB/c mouse assessed as reduction in tumor volume at 15 to 30 mg/kg, ip qd; type: functional, organism-based; settings: dose 15-30 mg/kg, time 14.0 day, TDE = time-dependent effect
[32] = system: Huh-7; experiment: Antitumor activity against human Huh-7 cells xenografted in ip dosed BALB/c mouse assessed as reduction in tumor volume measured after 14 days; type: functional, organism-based; settings: dose 15-30 mg/kg, time 14.0 day
[33] = Toxicity in BALB/c mouse xenografted with human Huh-7 cells assessed as change in body weight at 15 to 30 mg/kg, ip qd measured after 14 days; type: organism-based; settings: in vivo, 336 h, dose 15-30 mg/kg, time 14 day
[34] = Acute toxicity in BALB/c mouse assessed as mouse survival at 650 mg/kg, ip measured after 14 days; type: organism-based; settings: in vivo, 336 h, time 14 day
[35] = Acute toxicity in BALB/c mouse assessed as change in body weight at 650 mg/kg, ip measured at day 2; type: organism-based; settings: in vivo, 48 h, time 2 day

CC(=O)Oc1ccccc1/C=C/c1nccc2ccccc12
IC50 [1]: 6.14 µM | inhibition [2]: Active | Activity [3]: Dose-Dependent Effect | Activity [4]: Dose-Dependent Effect | Activity [5]: Dose-Dependent Effect | Activity [6]: Dose-Dependent Effect | Activity [7]: Dose-Dependent Effect | Activity [8]: Dose-Dependent Effect | inhibition [9]: Active | inhibition [10]: Active | Activity [11]: Active | Activity [12]: Active | Activity [13]: Active | Activity [14]: Active | Activity [15]: Active | Activity [16]: Active | Activity [17]: Active | Activity [18]: Active | Activity [19]: Active | Activity [20]: Dose-Dependent Effect | Activity [21]: Dose-Dependent Effect | Activity [22]: Active | Activity [23]: Active | Activity [24]: Dose-Dependent Effect | Activity [25]: Active | Activity [26]: Active | Activity [27]: Active | inhibition [28]: Active | Activity [29]: Active | Activity [30]: Tde | Activity [31]: Tde | Activity [32]: Dose-Dependent Effect | Activity [33]: Non-Toxic | Activity [34]: Non-Toxic | Activity [35]: Toxic
